# Measurements reported in ChEMBL document CHEMBL1201862, “PubChem BioAssay data set” (2004).
#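 A five-concentration, 48-hour dose response in 96-well plates underlies each endpoint, interpolated linearly between surrounding concentrations. Abbreviation: GI50, concentration required for 50% inhibition of growth.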 Activity calls are given as the source filed them. Cut-off read from the data, not from the text of the source: active = GI50 up to about 1.1 µM and inactive = higher.
# Legend:
# Experiment in all cases: growth of human tumour cells (NCI), 48 h
# A549 = system: A549
# ACHN = system: ACHN
# BT-549 = system: BT-549
# CAKI-1 = system: CAKI-1
# CCRF-CEM = system: CCRF-CEM
# COLO 205 = system: COLO 205
# DU-145 = system: DU-145
# EKVX = system: EKVX
# HCC 2998 = system: HCC 2998
# HCT-116 = system: HCT-116
# HCT-15 = system: HCT-15
# HL-60 = system: HL-60
# HOP-92 = system: HOP-92
# HT-29 = system: HT-29
# Hs-578T = system: Hs-578T
# IGROV-1 = system: IGROV-1
# K562 = system: K562
# KM12 = system: KM12
# LOX IMVI = system: LOX IMVI
# M14 = system: M14
# MCF7 = system: MCF7
# MDA-MB-231 = system: MDA-MB-231
# MDA-MB-435 = system: MDA-MB-435
# MDA-N = system: MDA-N
# MOLT-4 = system: MOLT-4
# NCI-H23 = system: NCI-H23
# NCI-H460 = system: NCI-H460
# NCI-H522 = system: NCI-H522
# NCI/ADR-RES = system: NCI/ADR-RES
# OVCAR-3 = system: OVCAR-3
# OVCAR-4 = system: OVCAR-4
# OVCAR-5 = system: OVCAR-5
# OVCAR-8 = system: OVCAR-8
# PC-3 = system: PC-3
# RPMI-8226 = system: RPMI-8226
# RXF 393 = system: RXF 393
# SF-268 = system: SF-268
# SF-295 = system: SF-295
# SF-539 = system: SF-539
# SK-MEL-28 = system: SK-MEL-28
# SK-MEL-2 = system: SK-MEL-2
# SK-MEL-5 = system: SK-MEL-5
# SK-OV-3 = system: SK-OV-3
# SN12C = system: SN12C
# SNB-19 = system: SNB-19
# SNB-75 = system: SNB-75
# SR = system: SR
# SW-620 = system: SW-620
# T47D = system: T47D
# TK-10 = system: TK-10
# U-251 = system: U-251
# UACC-257 = system: UACC-257
# UACC-62 = system: UACC-62
# UO-31 = system: UO-31
# 786-0 = system: 786-0
# A498 = system: A498
# HOP-62 = system: HOP-62
# NCI-H226 = system: NCI-H226
smiles,measurement,setting,value
CCOC(=O)NC(OCc1ccccc1)(C(=O)OC)C(F)(F)F (stereo unspecified),GI50,A549,> 100 µM (inactive)
same,GI50,ACHN,> 100 µM (inactive)
same,GI50,BT-549,> 100 µM (inactive)
same,GI50,CAKI-1,8.2 µM (inactive)
same,GI50,CCRF-CEM,> 100 µM (inactive)
same,GI50,COLO 205,> 100 µM (inactive)
same,GI50,DU-145,> 100 µM (inactive)
same,GI50,EKVX,> 100 µM (inactive)
same,GI50,HCC 2998,> 100 µM (inactive)
same,GI50,HCT-116,> 100 µM (inactive)
same,GI50,HCT-15,> 100 µM
same,GI50,HL-60,> 100 µM (inactive)
same,GI50,HOP-92,> 100 µM (inactive)
same,GI50,HT-29,> 100 µM (inactive)
same,GI50,Hs-578T,> 100 µM (inactive)
same,GI50,IGROV-1,> 100 µM (inactive)
same,GI50,K562,> 100 µM (inactive)
same,GI50,KM12,> 100 µM (inactive)
same,GI50,LOX IMVI,> 100 µM (inactive)
same,GI50,M14,> 100 µM (inactive)
same,GI50,MCF7,> 100 µM (inactive)
same,GI50,MDA-MB-231,> 100 µM (inactive)
same,GI50,MDA-MB-435,> 100 µM (inactive)
same,GI50,MDA-N,> 100 µM (inactive)
same,GI50,MOLT-4,> 100 µM (inactive)
same,GI50,NCI-H23,> 100 µM (inactive)
same,GI50,NCI-H460,> 100 µM (inactive)
same,GI50,NCI-H522,> 100 µM (inactive)
same,GI50,NCI/ADR-RES,> 100 µM (inactive)
same,GI50,OVCAR-3,> 100 µM (inactive)
same,GI50,OVCAR-4,> 100 µM (inactive)
same,GI50,OVCAR-5,> 100 µM (inactive)
same,GI50,OVCAR-8,> 100 µM (inactive)
same,GI50,PC-3,> 100 µM (inactive)
same,GI50,RPMI-8226,> 100 µM (inactive)
same,GI50,RXF 393,> 100 µM (inactive)
same,GI50,SF-268,> 100 µM (inactive)
same,GI50,SF-295,> 100 µM (inactive)
same,GI50,SF-539,> 100 µM (inactive)
same,GI50,SK-MEL-28,> 100 µM (inactive)
same,GI50,SK-MEL-2,> 100 µM (inactive)
same,GI50,SK-MEL-5,> 100 µM (inactive)
same,GI50,SK-OV-3,> 100 µM (inactive)
same,GI50,SN12C,> 100 µM (inactive)
same,GI50,SNB-19,> 100 µM (inactive)
same,GI50,SNB-75,> 10 µM (inactive)
same,GI50,SR,> 100 µM (inactive)
same,GI50,SW-620,> 100 µM (inactive)
same,GI50,T47D,> 100 µM (inactive)
same,GI50,TK-10,> 100 µM (inactive)
same,GI50,U-251,> 100 µM (inactive)
same,GI50,UACC-257,> 100 µM (inactive)
same,GI50,UACC-62,> 100 µM (inactive)
same,GI50,UO-31,> 100 µM (inactive)
CCOC(=O)c1c(N=C(S)Nc2ccccc2)sc2c1CCN(C)C2,GI50,786-0,> 100 µM (inactive)
same,GI50,A498,> 100 µM (inactive)
same,GI50,A549,> 100 µM (inactive)
same,GI50,ACHN,> 100 µM (inactive)
same,GI50,BT-549,> 100 µM (inactive)
same,GI50,CAKI-1,> 100 µM (inactive)
same,GI50,CCRF-CEM,> 100 µM (inactive)
same,GI50,COLO 205,> 100 µM (inactive)
same,GI50,DU-145,> 100 µM (inactive)
same,GI50,EKVX,> 100 µM (inactive)
same,GI50,HCT-116,> 100 µM (inactive)
same,GI50,HCT-15,> 100 µM
same,GI50,HL-60,> 100 µM (inactive)
same,GI50,HOP-62,> 100 µM (inactive)
same,GI50,HT-29,> 100 µM (inactive)
same,GI50,Hs-578T,> 100 µM (inactive)
same,GI50,IGROV-1,> 100 µM (inactive)
same,GI50,K562,> 100 µM (inactive)
same,GI50,KM12,> 100 µM (inactive)
same,GI50,M14,> 100 µM (inactive)
same,GI50,MCF7,> 100 µM (inactive)
same,GI50,MDA-MB-231,> 100 µM (inactive)
same,GI50,MDA-N,> 100 µM (inactive)
same,GI50,MOLT-4,> 100 µM (inactive)
same,GI50,NCI-H226,> 100 µM (inactive)
same,GI50,NCI-H23,> 100 µM (inactive)
same,GI50,NCI-H460,> 100 µM (inactive)
same,GI50,NCI/ADR-RES,> 100 µM (inactive)
same,GI50,OVCAR-3,> 100 µM (inactive)
same,GI50,OVCAR-5,> 100 µM (inactive)
same,GI50,OVCAR-8,> 100 µM (inactive)
same,GI50,PC-3,> 100 µM (inactive)
same,GI50,RPMI-8226,> 100 µM (inactive)
same,GI50,RXF 393,> 100 µM (inactive)
same,GI50,SF-268,> 100 µM (inactive)
same,GI50,SF-295,> 100 µM (inactive)
same,GI50,SF-539,> 100 µM (inactive)
same,GI50,SK-MEL-2,> 100 µM (inactive)
same,GI50,SK-MEL-5,> 100 µM (inactive)
same,GI50,SN12C,> 100 µM (inactive)
same,GI50,SNB-19,> 100 µM (inactive)
same,GI50,T47D,> 100 µM (inactive)
same,GI50,TK-10,> 100 µM (inactive)
same,GI50,UACC-257,> 100 µM (inactive)
same,GI50,UACC-62,> 100 µM (inactive)
same,GI50,UO-31,> 100 µM (inactive)
N#CCCN(CCC#N)c1ccc(/C=C2\N=C(c3ccccc3)N(NC(=O)c3ccncc3)C2=O)cc1,GI50,786-0,> 100 µM (inactive)
same,GI50,A498,> 100 µM (inactive)
same,GI50,A549,> 100 µM (inactive)
same,GI50,ACHN,> 100 µM (inactive)
same,GI50,BT-549,> 100 µM (inactive)
same,GI50,COLO 205,> 100 µM (inactive)
same,GI50,DU-145,> 100 µM (inactive)
same,GI50,EKVX,> 100 µM (inactive)
same,GI50,HCT-116,> 100 µM (inactive)
same,GI50,HCT-15,> 100 µM
same,GI50,HL-60,36.7 µM (inactive)
same,GI50,HOP-62,> 100 µM (inactive)
same,GI50,HOP-92,> 100 µM (inactive)
same,GI50,HT-29,> 100 µM (inactive)
same,GI50,Hs-578T,> 100 µM (inactive)
same,GI50,IGROV-1,> 100 µM (inactive)
same,GI50,K562,49.2 µM (inactive)
same,GI50,KM12,> 100 µM (inactive)
same,GI50,LOX IMVI,> 100 µM (inactive)
same,GI50,M14,> 100 µM (inactive)
same,GI50,MCF7,> 100 µM (inactive)
same,GI50,MDA-MB-231,> 100 µM (inactive)
same,GI50,MDA-MB-435,69.3 µM (inactive)
same,GI50,MDA-N,> 100 µM (inactive)
same,GI50,MOLT-4,> 100 µM (inactive)
same,GI50,NCI-H226,> 100 µM (inactive)
same,GI50,NCI-H460,> 100 µM (inactive)
same,GI50,NCI/ADR-RES,> 100 µM (inactive)
same,GI50,OVCAR-3,> 100 µM (inactive)
same,GI50,OVCAR-4,> 100 µM (inactive)
same,GI50,OVCAR-5,> 100 µM (inactive)
same,GI50,OVCAR-8,> 100 µM (inactive)
same,GI50,PC-3,> 100 µM (inactive)
same,GI50,RPMI-8226,> 100 µM (inactive)
same,GI50,RXF 393,> 100 µM (inactive)
same,GI50,SF-268,> 100 µM (inactive)
same,GI50,SF-295,> 100 µM (inactive)
same,GI50,SF-539,> 100 µM (inactive)
same,GI50,SK-MEL-28,> 100 µM (inactive)
same,GI50,SK-MEL-2,> 100 µM (inactive)
same,GI50,SK-MEL-5,> 100 µM (inactive)
same,GI50,SK-OV-3,> 100 µM (inactive)
same,GI50,SN12C,> 100 µM (inactive)
same,GI50,SNB-19,> 100 µM (inactive)
same,GI50,SW-620,> 100 µM (inactive)
same,GI50,T47D,> 100 µM (inactive)
same,GI50,TK-10,> 100 µM (inactive)
same,GI50,U-251,> 100 µM (inactive)
same,GI50,UACC-257,> 100 µM (inactive)
same,GI50,UACC-62,> 100 µM (inactive)
same,GI50,UO-31,> 100 µM (inactive)
